The source of these data is patent US20040132107A1, “Functional assay for g-protein-coupled receptors based on insect cells” (priority 2003, published 2004).

The target of assay [1] is T1, human 5-HT1A GPCR (Homo sapiens, UniProt P08908).
T1 sequence (P08908 1-422): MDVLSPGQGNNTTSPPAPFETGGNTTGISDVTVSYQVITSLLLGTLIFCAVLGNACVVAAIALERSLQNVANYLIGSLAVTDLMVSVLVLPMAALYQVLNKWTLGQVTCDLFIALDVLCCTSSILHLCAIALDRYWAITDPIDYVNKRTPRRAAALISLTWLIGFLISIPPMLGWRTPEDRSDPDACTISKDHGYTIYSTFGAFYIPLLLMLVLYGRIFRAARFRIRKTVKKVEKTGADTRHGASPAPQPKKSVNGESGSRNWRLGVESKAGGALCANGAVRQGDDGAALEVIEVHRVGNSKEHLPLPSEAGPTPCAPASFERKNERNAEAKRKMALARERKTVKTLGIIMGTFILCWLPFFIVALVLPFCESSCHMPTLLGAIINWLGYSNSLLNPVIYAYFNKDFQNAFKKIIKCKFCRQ
Particulars: FIG. 16.

In assay [2] the target is human Dopamine D1A GPCR (Homo sapiens, UniProt P21728). Briefly: DADR insect-based assay cell lines (Sf9; Dopamine D1A, Galpha16, aequorin), fractional luminescence.
Sequence of human Dopamine D1A GPCR (P21728 whole entry): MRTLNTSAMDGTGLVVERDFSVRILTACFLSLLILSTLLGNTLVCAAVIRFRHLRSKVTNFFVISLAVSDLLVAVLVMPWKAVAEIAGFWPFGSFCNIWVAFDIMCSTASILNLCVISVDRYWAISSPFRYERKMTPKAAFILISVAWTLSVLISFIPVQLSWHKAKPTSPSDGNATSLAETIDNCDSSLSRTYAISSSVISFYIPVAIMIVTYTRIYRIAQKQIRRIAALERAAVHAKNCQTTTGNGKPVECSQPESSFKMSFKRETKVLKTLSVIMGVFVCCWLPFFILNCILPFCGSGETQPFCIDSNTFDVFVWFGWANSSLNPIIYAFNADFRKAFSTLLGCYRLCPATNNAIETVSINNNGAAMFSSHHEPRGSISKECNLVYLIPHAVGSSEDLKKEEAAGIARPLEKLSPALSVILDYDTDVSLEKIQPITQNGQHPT
Experimental: In one embodiment, the assay system of the invention was implemented using the human dopamine D1 (hDD1) GPCR, which is normally coupled to a Gs-type G protein.
To assay GPCR antagonists required a modified protocol. […] Light output was monitored for 75 seconds. […] Data analysis was performed as described above. An optional 10 second rocking step was added after each individual well was measured, to ensure that the insect-based assay cells arrayed in the plate stayed in suspension
Agonist and antagonist concentration-response curves were obtained by plotting graphs of A/(A+L) on the Y-axis versusLOG10 of ligand concentration (Molar) on the X-axis. Curve fitting was performed using the software package GraphPad Prism (GraphPad Software, Inc., San Diego, Calif., USA). The 3- or 4-Parameter Logistic equations were used for non-linear regression, and to acquire derived values (EC50 and Hill Slope).
Assay [3] addresses T2, human Thromboxane A2 GPCR (Homo sapiens, UniProt P21731).
T2 construct: expressed in transfected cells; host or cells: Sf9, transiently transfected
T2 sequence (P21731 1-343): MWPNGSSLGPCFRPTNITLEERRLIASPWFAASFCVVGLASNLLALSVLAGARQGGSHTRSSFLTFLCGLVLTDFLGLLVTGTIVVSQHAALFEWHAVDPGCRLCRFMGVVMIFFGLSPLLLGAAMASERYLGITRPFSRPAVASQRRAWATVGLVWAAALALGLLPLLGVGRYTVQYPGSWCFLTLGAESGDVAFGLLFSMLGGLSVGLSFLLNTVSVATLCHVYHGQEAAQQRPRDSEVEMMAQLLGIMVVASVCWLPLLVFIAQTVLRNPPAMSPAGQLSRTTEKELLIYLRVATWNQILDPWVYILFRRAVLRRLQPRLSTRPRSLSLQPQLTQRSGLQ
Nature of the assay: TA2R insect-based assay cell lines (Sf9, transiently transfected), fractional luminescence. The protocol: Light output was monitored for 70 seconds. […] Data analysis was performed as described above
Agonist and antagonist concentration-response curves were obtained by plotting graphs of A/(A+L) on the Y-axis versusLOG10 of ligand concentration (Molar) on the X-axis.Curve fitting was performed using the software package GraphPad Prism (GraphPad Software, Inc., San Diego, Calif., USA). The 3- or 4-Parameter Logistic equations were used for non-linear regression, and to acquire derived values (EC50 and Hill Slope).

For assay [4], the target named is T3, human Histamine H1 GPCR (Homo sapiens, UniProt P35367).
T3 construct: expressed in transfected cells; host or cells: Sf9, transiently transfected
T3 sequence (P35367 whole entry): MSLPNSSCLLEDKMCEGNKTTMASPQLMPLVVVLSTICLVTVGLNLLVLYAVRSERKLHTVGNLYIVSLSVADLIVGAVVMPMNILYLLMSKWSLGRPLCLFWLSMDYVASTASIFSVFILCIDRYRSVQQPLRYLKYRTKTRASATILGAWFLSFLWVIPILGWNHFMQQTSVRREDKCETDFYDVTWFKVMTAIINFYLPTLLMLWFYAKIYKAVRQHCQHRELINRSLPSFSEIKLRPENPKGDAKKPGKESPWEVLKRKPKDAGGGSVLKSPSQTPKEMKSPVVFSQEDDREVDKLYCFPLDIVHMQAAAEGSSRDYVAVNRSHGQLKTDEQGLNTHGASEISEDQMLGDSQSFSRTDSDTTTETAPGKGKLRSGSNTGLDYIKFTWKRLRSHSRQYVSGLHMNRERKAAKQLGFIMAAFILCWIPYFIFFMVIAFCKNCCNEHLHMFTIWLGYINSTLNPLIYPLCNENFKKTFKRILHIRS
Briefly: HH1R insect-based assay cell lines (Sf9, transiently transfected), fractional luminescence.

Assay [5] addresses human beta2 Adrenergic receptor (Homo sapiens, UniProt P07550). Briefly: B2AR insect-based assay cell lines (Sf9, transiently transfected), fractional luminescence. Particulars: FIG. 17.
Assay [6] addresses human 5-HT2A GPCR (Homo sapiens, UniProt P28223). Nature of the assay: 5H2A insect-based assay cell lines (Sf9, transiently transfected), fractional luminescence. To be noted: increasing concentrations of agonist; FIG. 14.
Where [7] appears, read: 100 microM, cells expressing all three assay components.

Sequence of human beta2 Adrenergic receptor (P07550 whole entry): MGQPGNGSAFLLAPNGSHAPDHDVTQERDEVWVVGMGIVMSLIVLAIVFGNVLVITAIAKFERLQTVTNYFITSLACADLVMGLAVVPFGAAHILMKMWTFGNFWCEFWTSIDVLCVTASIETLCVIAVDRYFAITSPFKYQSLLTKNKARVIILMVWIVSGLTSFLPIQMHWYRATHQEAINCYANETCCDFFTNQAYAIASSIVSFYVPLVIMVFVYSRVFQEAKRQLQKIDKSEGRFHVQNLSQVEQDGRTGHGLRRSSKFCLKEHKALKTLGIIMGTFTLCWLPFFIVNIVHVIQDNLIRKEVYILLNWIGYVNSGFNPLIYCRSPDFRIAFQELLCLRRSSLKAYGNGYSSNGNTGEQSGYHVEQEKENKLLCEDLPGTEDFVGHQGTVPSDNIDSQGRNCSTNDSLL
Sequence of human 5-HT2A GPCR (P28223 whole entry): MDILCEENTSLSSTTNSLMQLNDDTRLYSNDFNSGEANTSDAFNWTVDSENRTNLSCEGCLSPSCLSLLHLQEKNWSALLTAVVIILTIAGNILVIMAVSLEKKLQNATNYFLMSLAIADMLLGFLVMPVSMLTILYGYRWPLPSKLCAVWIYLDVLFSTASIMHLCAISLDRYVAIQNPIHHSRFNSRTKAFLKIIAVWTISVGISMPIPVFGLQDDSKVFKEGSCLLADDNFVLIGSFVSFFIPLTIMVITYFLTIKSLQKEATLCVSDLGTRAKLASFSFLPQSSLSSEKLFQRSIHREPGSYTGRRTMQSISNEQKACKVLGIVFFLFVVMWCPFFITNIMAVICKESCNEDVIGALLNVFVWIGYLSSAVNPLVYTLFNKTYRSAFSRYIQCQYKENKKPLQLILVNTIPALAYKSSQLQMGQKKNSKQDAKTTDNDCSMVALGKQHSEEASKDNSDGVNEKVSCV

Consider `CC(C)NCC(O)COc1cccc2ccccc12` (racemic) [DL-propranalol], for which the “effect of antagonist pre-incubation on activation by serotonin” value in assay [1] (antagonist 10 microM, then serotonin) was “prevents subsequent activation”.

Consider `Oc1cc2c(cc1O)C(c1ccccc1)CNCC2` (stereo not shown) [SKF38393], for which, in assay [2] (increasing concentrations of agonist, FIG. 5), the agonist concentration-activity curve entry is listed as “characteristic sigmoidal agonist concentration-activity curve”.

For the compound `O=C(O)CCC/C=C\C[C@@H]1[C@H](CNNC(=O)Nc2ccccc2)[C@H]2CC[C@@H]1O2` [SQ29,548], the “block of U44069 agonist activity by pre-incubation with antagonist” value in assay [3] (FIG. 10) is listed as “can be blocked”. In addition, the antagonist concentration-activity curve entry in assay [3] (varying antagonist against fixed U44069 at 10 microM, FIG. 10) is recorded as “Characteristic sigmoidal antagonist concentration-activity curves”.

Turning to `CCCCC[C@H](O)/C=C/[C@H]1[C@@H]2CO[C@@H](C2)[C@@H]1C/C=C\CCCC(=O)O` [U44069], the agonist concentration-activity curve result in assay [3] (increasing concentrations of agonist, FIG. 9) is recorded as “characteristic sigmoidal agonist concentration-activity curve”.

Regarding `OCCN1CCN(CC/C=C2/c3ccccc3Sc3ccc(C(F)(F)F)cc32)CC1` [cis-Flupenthixol], the “block of dopamine agonist activation by pre-incubation with antagonist” value in assay [2] (pre-incubation with antagonist, then dopamine, FIGS. 4 and 6) is listed as “can be blocked”. Besides, in assay [2] (varying antagonist against fixed dopamine at 100 microM, FIG. 6), the antagonist concentration-activity curve entry was “Characteristic sigmoidal antagonist concentration-activity curves”.

For the compound `NCCc1c[nH]cn1` [histamine], in assay [4], the agonist concentration-activity curve entry is “characteristic sigmoidal agonist concentration-activity curve”; the “fractional response to histamine in the absence of Galpha16” value was “reduced in the absence of Galpha16, it is still significant”; the “response in the absence of the Histamine H1 receptor” value was “no response”.

Regarding `NC[C@H](O)c1ccc(O)c(O)c1` [nor-epinephrine], the “response of assay cells to agonist” value in assay [5] (setting [7]) was “respond”. Besides, the “agonist response in the absence of Galpha16” value in assay [5] (cells without Galpha16) is reported as “reduced in magnitude”.

On to `NCCc1c[nH]c2ccc(O)cc12` [serotonin], for which the agonist concentration-activity curve entry in assay [6] is “characteristic sigmoidal agonist concentration-activity curve”. For the same compound, the “response of assay cells to agonist” value in assay [1] (setting [7]) is “respond”.

For `Cc1ccc(/C(=C\CN2CCCC2)c2ccccn2)cc1.Cl` [triprolidone hydrochloride], the “block of histamine agonist activity by pre-incubation with antagonist” value in assay [4] (FIG. 12) is on record as “can be blocked”. Moreover, in assay [4] (varying antagonist against fixed histamine at 100 microM, FIG. 12), the antagonist concentration-activity curve result was “Characteristic sigmoidal antagonist concentration-activity curves”.
